Laboratory results from publication PMC12304301, “The Drosophila DEG/ENaC PPK12 is a Na^+ leak channel with a low Na^+ affinity” (Scientific Reports, 2025).

Assays:
PPK12 [1] = biological target: T1, PPK12 (Drosophila melanogaster, UniProt Q9W250); assay: two-electrode voltage clamp of Xenopus oocytes, block of NMDG-sensitive constitutive current; format: cell-based
T1 construct: cRNA expressed alone in Xenopus laevis oocytes; DEG/ENaC family members are trimers
T1 sequence (Q9W250 1-569): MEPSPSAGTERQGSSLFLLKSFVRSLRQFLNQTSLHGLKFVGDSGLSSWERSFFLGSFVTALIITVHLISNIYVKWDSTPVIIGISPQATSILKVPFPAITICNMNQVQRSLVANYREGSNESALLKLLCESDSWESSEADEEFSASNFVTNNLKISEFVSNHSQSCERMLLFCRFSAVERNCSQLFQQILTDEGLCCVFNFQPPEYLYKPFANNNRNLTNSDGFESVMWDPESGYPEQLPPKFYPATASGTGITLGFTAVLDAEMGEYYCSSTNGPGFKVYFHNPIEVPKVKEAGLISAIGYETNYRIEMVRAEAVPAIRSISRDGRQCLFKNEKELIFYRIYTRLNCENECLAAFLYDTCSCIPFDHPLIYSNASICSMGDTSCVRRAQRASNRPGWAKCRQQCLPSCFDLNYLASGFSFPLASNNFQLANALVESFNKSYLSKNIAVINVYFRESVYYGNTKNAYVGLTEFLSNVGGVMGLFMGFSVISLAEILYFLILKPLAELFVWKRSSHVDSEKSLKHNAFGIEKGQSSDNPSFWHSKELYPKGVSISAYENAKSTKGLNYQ

PPK12 [2] = biological target: T1, PPK12; assay: two-electrode voltage clamp of Xenopus oocytes, inhibition of total constitutive current; format: cell-based; details: 140 mM NaCl bath, pH 7.4, -70 mV; only part of current carried by PPK12

SMILES	IC50 (PPK12 [1]) [µM]	% inhibition at 100 μM (PPK12 [2])
N=C(N)NC(=O)c1nc(Cl)c(N)nc1N [amiloride]	220 ± 20	
N=C(N)c1ccc(/N=N/Nc2ccc(C(=N)N)cc2)cc1 [diminazene]	110 ± 10	
NC(=NC(=O)c1nc(Cl)c(N)nc1N)NCc1ccccc1 [benzamil]		amiloride, its analog benzamil, and diminazene–partially and reversibly inhibited constitutive currents in PPK12-expressing oocytes
